Reference: patent publication US10213494B2, “Treatment of synucleinopathies” (The Brigham and Women's Hospital, Inc., priority 2007, dated 2019)

Test system: α-synuclein protein in MES23.5 cells
Test: Western blot of α-synuclein in co-transfected MES23.5 cells
Type: cell-based, human
Details: co-expression with αS for 24 hours; syn-1, 7071AP and hSA-2 antibodies
Procedure: Cells were transfected with 0, 0.25, 0.5, 1, 5, and 10 μg (per 10 cm dish) of plasmid. 24 hours later, cells were washed with Tris-buffered saline and lysed in 140 mM NaCl, 50 mM Tris-Hcl, pH 8.0, 1 mM EDTA, 0.5% Triton-X100, and 1× protease inhibitors. Lysates were centrifuged at 100,000×g for 30 min at 4° C.; the top 2/3 of supernatants were removed and frozen in siliconized tubes at −80° C. Samples were run on SDS/PAGE, using 1 mM DTT as the reducing agent. Expression of the αS protein was confirmed at 24 hours post-transfection by Western blotting, where cell lysates were probed with a monoclonal antibody against αS protein (syn-1 antibody, BD Transduction Labs).
MES23.5 cells were transfected with 0.5 μg αS-encoding SNCA cDNA per 10 cm dish plus either 1.25, 2.5 or 5 μg (low, medium, or high) GBA-encoding cDNA in the absence or presence of 5 μg of Prosaposin-encoding cDNA. All arms of the experiment were balanced up to a total of 10.5 μg cDNA per 10 cm dish using empty vector cDNA. The GBA- and Prosaposin-encoding cDNA plasmids under a CMV promoter, as well as the pCMV-XL5 empty vector were purchased from OriGene Technologies, Inc (clones had been fully sequence-verified after isolation and a maxiprep). 24 hours later, cells were lysed and probed for GBA and αS protein levels. The upper panel in of FIG. 2B3 is a representation of a Western Blot indicating expression of GBA protein in the absence and presence of co-transfected prosaposin. GBA was probed using the monoclonal antibody 8E4. GBA over-expression occurred in a slightly gene-dosage dependent way in the absence of prosaposin. In the presence of prosaposin over-expression, the GBA signal itself was decreased. […]

## cathepsin D: human lysosomal aspartyl protease expressed from CTSD cDNA plasmid under a CMV promoter
  generation of lower or higher molecular weight αS species: did not lead to the generation of any visible lower or higher molecular weight species
